This passage reports melting point results from a melting point compilation (Tetko et al.; mined from patent text by program, amines drawn as free bases though some values may be those of a salt).

On to `CC(Oc1cc2sc(NC(=O)CCCN3CCCC3)nc2cc1F)c1c(Cl)ccc(F)c1Cl` (configuration not stated), for which the melting point lay within 153 to 157 °C.

As for `C=C(CCCC(=O)N1CCC[C@@H](C(=O)OC(C)(C)C)N1)C(=O)O`, the melting point lay in the range of 86 to 88 °C.

The molecule `CC1CCN(c2nccc(Oc3ccc(NC(=O)c4cc(F)cc(N5CCCCC5)c4)c4ccccc34)n2)CC1` yielded a melting point of 145 to 146 °C.

Molecule `COC(=O)c1cccc(NC(=O)C(C)CSC(C)=O)n1` (configuration not stated) showed a melting point of 75 to 77 °C.

The molecule `COC(=O)c1cn(C(c2ccccc2)(c2ccccc2)c2ccccc2)nn1` had a melting point of 189 to 190 °C.

`CCC(C)c1ccc(OC(C)=O)c(C2(OC(C)=O)C(=O)c3ccccc3C2=O)c1` (configuration not stated) displayed a melting point of 118 to 120 °C.

`Cc1oc(-c2ccccc2)nc1COc1nn(Cc2ccc(Oc3ccccc3)cc2)cc1CCC(=O)O` showed a melting point of 120 to 121 °C.

`Cc1cc(OCC(=S)Nc2cccc(C(=O)O)c2)ccc1C(C)C` registered a melting point of 174 to 176 °C.

In turn, `COc1ccc(Cc2n[nH]c(=O)c3ccccc23)cc1N` had a melting point of 212 to 214 °C.

For `O=[N+]([O-])c1ccc(OCc2ccc(Cl)nc2)cc1F`, the melting point turned out to be 174 °C.

In turn, `Cc1cc(C2(C(F)(F)C(F)(F)C(F)(F)F)CC(c3ccc(Cl)cc3)=NO2)ccc1NC(=O)c1cccc(I)c1C(=O)NC(C)C` (configuration not stated) registered a melting point of 156 to 158 °C.

The molecule `CN(C)[C@H]1CC[C@@H](n2cc(-c3ccc(Oc4ccccc4)cc3)c3c(N)ncnc32)CC1` yielded a melting point of 180 to 182 °C.

Molecule `N#Cc1c(-c2ccc(Cl)c(Cl)c2)[nH]c(I)c1I` had a melting point greater than 230 °C.

With `CCCCCCCCOC(=S)c1cc(C(C)(C)C)c(OC(=O)c2cc(C(C)(C)C)c(O)c(C(C)(C)C)c2)c(C(C)(C)C)c1`, the melting point was 129 to 132 °C.

Consider `CCN(CC)c1ccc(C=C2CC(C)CC(=Cc3ccc(N(CC)CC)cc3)C2=O)cc1` (configuration not stated), for which the melting point was 169 °C.

For the molecule `CCCCCCCCCCCCCCCCCC(=O)c1cc(C(=O)OCC)ccc1O`, the melting point stood at 74 °C.

Take `COC(=O)c1ccc(CN2CCc3ccc(S(=O)(=O)Nc4cccc(Cl)c4)cc3C2)o1`: the melting point fell in the range of 167 to 168 °C.

Consider `COc1ccc(-c2cc(F)c3c(Cl)c(O)ccc3c2)cc1`, for which the melting point was 120 to 124 °C.

In the case of `O=C(O)c1cncc(-c2ccc(Cl)c(C(=O)NCC34CC5CC(CC(C5)C3)C4)c2)c1`, the melting point was 178 to 182 °C.

`CCCCCCCCOc1cc(N)c(OCOC)c(OC)c1` had a melting point of 56 to 57 °C.

For `CN(C)CC1CCCCN1CCNC(=O)N1c2ccccc2NC(=O)c2ccccc21` (configuration not stated), the melting point was in the range of 152 to 154 °C.

In the case of `CCN(CC)CC1CCCCN1CC(=O)N1c2ccccc2NC(=O)c2csc(C)c21` (configuration not stated), the melting point is 147 to 149 °C.

Turning to `N=C(NCCCOc1cccc2[nH]c3ccccc3c12)c1cccs1`, the melting point was 189 to 190 °C.

The molecule `CN(CCC#N)CCc1coc(-c2cc(C(C)(C)C)c(O)c(C(C)(C)C)c2)n1` yielded a melting point of 104 to 105 °C.

Regarding `CCOC(=O)c1cc(-c2csc(-c3ccnc(NC)c3)n2)c(=O)[nH]c1C(C)C`, the melting point is greater than 230 °C.

`Cc1nc(Nc2ccccc2)sc1C(=O)c1sc(Nc2ccccc2)nc1C`: the melting point lay within 194 to 196 °C.

Molecule `COc1ccc(C(=O)c2ccc(Cl)nc2)cc1OC` registered a melting point of 158 to 159 °C.

For `Clc1ccc(CSCc2ccc(Cl)cc2)cc1`, the melting point lay within 42 to 44 °C.

As for `CN1CCN(c2ccc(Nc3ncc4c(n3)S/C(=C/c3ccc(C(N)=O)cc3)C(=O)N4)cc2)CC1`, the melting point lay in the range of 294 to 298 °C.

In the case of `O=c1nc(-c2ccccn2)sc2ccc(OCCCO)cc12`, the melting point fell in the range of 197 to 198 °C.

The molecule `CCc1nc2c(N)nc3cc(-c4cccnc4)ccc3c2n1CC1CCN(C(=O)OC(C)(C)C)CC1` registered a melting point of 229 to 231 °C.

Regarding `O=C(CCc1ccc(NC(=O)c2ccccc2)cc1)NO`, the melting point was 189 to 191 °C.

Regarding `CN1CC(=O)N(c2ccc(C(C)(C)C)cc2)C1=S`, the melting point was 156 to 158 °C.

`CC(=Cc1cccc2ccccc12)[N+](=O)[O-]` returned a melting point of 64 to 67 °C.

For `O=C(c1cnc2ccccc2c1)N1CCC(c2ccccc2)=N1`, the melting point lay within 107 to 112 °C.

Turning to `CC(C)C(=O)N[C@H]1C[C@H](C(=O)O)Nc2cc(Cl)cc(Cl)c21` (relative stereo), the melting point lay within 197 to 198 °C.

As to `CC(=O)N[C@@H](C)COC1CCN(c2nc3cc(OCC4CC4)ccc3s2)CC1`, the melting point was 115 to 116 °C.

`NC(=S)Nc1cc(Cl)ccc1N1CCOCC1` returned a melting point of 174 to 175 °C.

Regarding `COc1ccc(-c2cc(=O)n(Cc3ccc(F)cc3F)nc2-c2ccc(OC)cc2)cc1`, the melting point lay in the range of 150 to 151 °C.

In turn, `CC1CC(C)(C)C(O)(CO)C1Cc1ccc(Cl)cc1` (configuration not stated) had a melting point of 93 to 94 °C.

On to `Cc1ccc(Oc2ccc(C(=N)NN)cc2)c(O)c1`, for which the melting point is greater than 260 °C.

Consider `CC(Oc1cc(F)cc(F)c1)C1=NCCN1` (configuration not stated), for which the melting point amounted to 134 °C.

Take `O=C(O)c1cc2cc(-c3ccccc3)ccc2o1`: the melting point was 220 to 221 °C.

Molecule `Cc1nc2c(O)c(C(=O)[C@@H]3OC(C)(C)O[C@H]3c3ccccc3)ccc2n1C` showed a melting point of 233 °C.

Consider `COc1c(CBr)cccc1CBr`, for which the melting point was 83.5 to 85.5 °C.

`Nc1cc(Oc2ccc(NC(=O)Nc3ccc(-c4ccccn4)c(C(F)(F)F)c3)cc2)ncn1`: the melting point fell in the range of 188 to 192 °C.

The molecule `O=S(=O)(c1ccc(Br)cc1)N1CCC(CN2CCC(c3ccncc3)CC2)CC1` yielded a melting point of 163 to 164 °C.

`O=C(O)c1cc2n(c1)CCCC2` returned a melting point of 131 to 134 °C.

Regarding `CC(C)(C)NC(=O)c1nn(-c2ccc(F)cc2)c2c1C1CC3CC(C1)CC2C3`, the melting point fell in the range of 214 to 216 °C.

The molecule `CCc1cc2oc(=O)c(C#N)c(C)c2cc1CC` yielded a melting point of 169 °C.

Turning to `O=C(O)CON=CCCl`, the melting point is 66 to 68 °C.

For `c1ccc(C2CCNCc3ccccc3O2)cc1` (configuration not stated), the melting point is 73 to 74 °C.

The molecule `O=C(Nc1nc2ccccc2s1)Nc1cccc2c1C1CCCCN1C2=O` (configuration not stated) showed a melting point of 260 °C.

On to `CCC(=O)OCC1OC(n2cnc3c(OC)nc(N)nc32)C(O)C1O` (configuration not stated), for which the melting point is 124 °C.

Molecule `CCOC(=O)c1c(C(F)(F)F)nc(C(F)F)c(C#N)c1CC` registered a melting point of 38 to 40 °C.

`C=C1COc2c(F)c(F)cc3c(=O)c(C(=O)OCC)cn1c23` showed a melting point of 258 to 263 °C.

For `CNCC(O)CN1CCN(CC(O)Cn2c3ccc(Br)cc3c3cc(Br)ccc32)CC1` (configuration not stated), the melting point fell in the range of 65 to 75 °C.

Regarding `COc1cccc2c1OC(C(C)C)C2=O` (configuration not stated), the melting point was in the range of 46 to 47 °C.

Regarding `Cc1cc(C(=O)NCCO)ncc1C(c1cc(F)ccc1F)S(=O)(=O)c1ccc(F)cc1` (configuration not stated), the melting point lay in the range of 153 to 154 °C.

As to `NC(=S)NN=C(CCCCl)c1ccc(O)cc1`, the melting point lay within 126 to 129 °C.

With `Cc1[nH]cc2c(=O)n(-c3ccc(Cl)cc3)nc-2c1-c1ccc(N2CCOCC2)cc1`, the melting point was 306 to 315 °C.

For `O=C(NC1CN2CCC1CC2)c1cccc2oc(-c3ccc(F)cc3)nc12` (configuration not stated), the melting point lay in the range of 208 to 209 °C.

On to `C=CCOc1cccc(N2C(=O)C3=C(CCCC3)C2=O)c1`, for which the melting point lay in the range of 88 to 90 °C.

For `FC(F)(F)c1cccc(CSc2nnc(-c3ccc4ncsc4c3)o2)c1`, the melting point lay in the range of 112 to 113 °C.

Molecule `CC(C)(C)OC(=O)N1CCN(c2cccc(Cl)c2C=O)CC1` had a melting point of 100 to 103 °C.

Turning to `NC(=O)CCCCCCBr`, the melting point came to 84 °C.

For the molecule `CC(C)OP(=O)(OCN1C(=O)c2c(C(C)C)cc(OCC(=O)OCc3ccccc3)cc2S1(=O)=O)OC(C)C`, the melting point was 93 to 94 °C.

Molecule `Cc1ccnc2c(-c3ccc(C)c4c(C)ccnc34)ccc(C)c12` gave a melting point of 290 to 295 °C.

`O=[N+]([O-])c1cc(C2=Nc3ccccc3SC2)cc(O)c1O` showed a melting point of 302 to 304 °C.

As for `O=C(O)C1=Cc2cc(-c3ccc4c(c3)OCO4)ccc2SCC1`, the melting point lay in the range of 227 to 229 °C.

Regarding `C=CCn1cc(-c2ccccc2)c(=O)c(-c2ccccc2)c1`, the melting point was determined as 174 °C.

Turning to `CC[C@@H]1N(c2ccc(C#N)c(Cl)c2)C(=O)C[C@@]1(O)C1CC1`, the melting point fell in the range of 128 to 132 °C.

`CCn1cc(CN(C(=O)C2CCCc3ccc(O)cc32)c2ccc(C(C)C)cc2)cn1` (configuration not stated) registered a melting point of 169 to 170 °C.

With `CC(=O)NCC1=C(N2CCCC2=O)c2cc([N+](=O)[O-])ccc2OC1(C)C`, the melting point is 205 °C.

As to `COc1cc(N)c(Cl)cc1C(=O)NC1CCN(CCNC(=O)C(O)c2ccccc2)CC1OC` (configuration not stated), the melting point was determined as 228 °C.

`O=C(Cn1sc2ccccc2c1=O)N1CCN(C(=O)Oc2ccc([N+](=O)[O-])cc2)CC1`: the melting point lay within 114 to 118 °C.

In turn, `CC(C)(C)C(=O)OCc1nc(-c2cc(C(C)(C)C)c(O)c(C(C)(C)C)c2)cs1` showed a melting point of 115 to 116 °C.

With `C[C@@H]1C[C@@H]([C@H](CC2CCCCC2)NC(=O)[C@H](Cc2cscn2)NC(=O)OC(C)(C)C)OC1=O`, the melting point was 118 to 120 °C.

For `O=C(O)c1cn(C2CC2)c2cc(N3CCC(c4cccnc4)C3)c(F)cc2c1=O` (configuration not stated), the melting point was in the range of 233 to 236 °C.

As to `CCOP(=O)(Cc1ccc(NC(=O)/C=C/c2cn[nH]c2-c2ccc(F)cc2)cc1)OCC`, the melting point was 181 to 182 °C.

For the molecule `COc1cc2ccccc2cc1N(C)C(=O)N1CCN(c2cc(C)cc(C)c2)CC1`, the melting point was in the range of 134 to 136 °C.

With `C[C@]12C[C@H](c3ccc(OCCCCCCl)cc3)[C@@H]3c4ccc(O)cc4CC[C@H]3[C@@H]1CC[C@@H]2O`, the melting point is 165 °C.

For `COCC1(C)CCOc2ccc(C#Cc3ccc(C(=O)O)cc3)cc21` (configuration not stated), the melting point was 202 to 203 °C.

`CC(=O)N(C)c1ccc2c(c1)C(c1ccccc1F)=NCc1cnc(C)n1-2` gave a melting point of 217 to 223 °C.

The molecule `Cn1ccnc1COc1cc(Oc2ccc(S(C)(=O)=O)cc2)cc2cc(C3=NCC(CC(N)=O)S3)[nH]c12` (configuration not stated) registered a melting point of 130 to 131 °C.

`CCOC(=O)c1cc(C#N)c(C=O)nc1N1CCCCC1`: the melting point was in the range of 62 to 64 °C.

`COc1c(Br)c(-c2csc(C(C)C)n2)cc2oc(=O)c(Cl)c(C)c12` came in with a melting point of 186 °C.
